Each structure is given as a SMILES string.

Data set [1] in a line: Pharmacokinetic study: diflunisal levels in plasma after oral administration in mice. Type of data set: in vivo. The conditions noted are these: 0.05 mmol/kg. Here is the method:
Diflunisal is detected in plasma of mice orally dosed with the compound described in Example 5 or the compound described in Example 8 (0.05 mmol/kg) (table 3).
Male cd-1 mice weighing 25-30 g are purchased from Charles River Laboratories Spain. The animals are housed in animal quarters at 22° C. with a 12-h light/12-h dark cycle and fed ad libitum. O/N fasted animals are dosed at […] with 0.05 mmol/kg of the indicated compound. […] Plasma was separated after centrifugation of blood and kept at −20° C. until metabolites determination.

Data set [2] in a line: In vitro cleavage studies: incubation with human liver S9 fraction, release of the NSAID. Type of data set: in vitro ADME. The following applies: after 1 h of incubation. The procedure: Table 1 and 2 summarize in vitro data showing that thiocarbonate compounds are hydrolyzed in the presence of human liver S9 fraction and release the NSAID component, Diflunisal (Table 1) or salicylate (Table 2).
The compounds are incubated with human liver S9 fraction to study its metabolic stability and to profile and identify the forming metabolites. The basic incubation mixture of 500 μl in volume consisted of the following components: 1.5 mg of protein per ml, substrate in DMSO, 1 mM NADPH, 1 mM UDPGA, 1 mM PAPS and 1 mM GSH. The substrate concentration used was 2 μM. The final amount of DMSO in the incubation was 1% (v/v). Each reaction mixture was preincubated for 2 minutes at +37° C. The reaction was started by addition of cofactors. After an incubation of 60 min, a 100 μl sample was collected and the reaction was terminated by adding an equal volume of ice-cold acetonitrile. Samples were subsequently cooled in an ice bath for 15 minutes and analyzed. […] The samples are analyzed by HPLC/TOF-MS to monitor both the disappearance of the parent compound and formation of metabolites. […] In addition to ion source conditions optimised to produce molecular ions with high abundance, the samples from last time point (60 min) are analysed also using another parameters (higher aperture voltage) to generate high-resolution in-source fragment ion data. […]

For a further data set, the system named is db/db mice. The data set can be described thus: Reduction of fasting glycemia in db/db mice. Type of data set: in vivo. The following applies: db/db mice treated for two weeks with a daily dose, versus vehicle; t-test p less than 0.01 (FIG. 1). The procedure:
5-weeks old male mice C57BL/Ks bearing the db/db mutation (The Jackson Laboratories) and 7-weeks old male mice C57BL/6 bearing the ob/ob mutation are purchased from Charles River Laboratories Spain (Sant Cugat del Vallès, Spain) are treated with compounds as disclosed herein for a month, administered by single oral injection. Glycemia levels are determined in blood from the Tail Vein, using a rapid glucose analyzer (Accu-Chek Aviva; Roche) 3 times per week, as well as body weight measure. The food and water intake is measured twice a week.
db/db mice were treated for two weeks with a daily dose of the compound of Example 8, (R)-2-acetamido-3-((2′,4′-difluoro-3-(propoxycarbonyl)biphenyl-4-yloxy)carbonylthio) propanoic acid, or with vehicle.

`COC(=O)c1cc(-c2ccc(F)cc2F)ccc1OC(=O)SCCC(NC(C)=O)C(=O)O` (racemic) [Example 5, (+/−)-2-Acetamido-4-((2′,4′-difluoro-3-(methoxycarbonyl)biphenyl-4-yloxy)carbonylthio)butanoic acid]: the “Diflunisal detected in plasma of orally dosed mice” value in data set [1] is given as “detected”. `COC(=O)c1ccccc1OC(=O)SC[C@H](NC(C)=O)C(=O)O` [Example 2, (R)-2-Acetamido-3-((2-(methoxycarbonyl)phenoxy)carbonylthio)propanoic acid]: the “Release of the NSAID (diflunisal or salicylate) on incubation in the presence of human liver S9 fraction” value in data set [2] was “no diflunisal or salicylate has been detected”. Consider `CC(=O)N[C@@H](CSC(=O)Oc1ccccc1C(=O)OCc1ccccc1)C(=O)O` [Example 4, (R)-2-Acetamido-3-((2-(benzyloxycarbonyl)phenoxy)carbonylthio) propanoic acid], for which the “Release of the NSAID (diflunisal or salicylate) on incubation in the presence of human liver S9 fraction” value in data set [2] was “no diflunisal or salicylate has been detected”. Turning to `CCCOC(=O)c1cc(-c2ccc(F)cc2F)ccc1OC(=O)SC[C@H](NC(C)=O)C(=O)O` [Example 8, (R)-2-Acetamido-3-((2′,4′-difluoro-3-(propoxycarbonyl)biphenyl-4-yloxy)carbonylthio)propanoic acid], in data set [1], the “Diflunisal detected in plasma of orally dosed mice” value is listed as “detected”. Moreover, the Fasting glycemia result in the data set with db/db mice is on record as “significantly reduced”.

The values are drawn from patent US8466197B2, “Thiocarbonates as anti-inflammatory and antioxidant compounds useful for treating metabolic disorders” (Genmedica Therapeutics SL, priority 2010, dated 2013).
